Source: publication PMC7796031, “Studies of Coumarin Derivatives for Constitutive Androstane Receptor (CAR) Activation” (Molecules, 2020)

Target: T1, EGFR (Homo sapiens, UniProt P00533)
T1 construct: 6,7-Diprenoxycoumarin (50) antagonized EGF-induced phosphorylation EGFR in Hep3B; endogenous in cells; host or cells: Hep3B
Assay: EGF-induced phosphorylation of EGFR in Hep3B (western blot)
Assay type: cell-based
Details: 10 μM, 15 min
Description: Figure 4 6,7-Diprenoxycoumarin (50) antagonized EGF-induced phosphorylation EGFR in Hep3B. The Hep3B cells (1 × 10^6) were treated without (Ctrl) or with EGF in the absent 50 or present (EGF + 50) of 10 μM 50 for 15 min and phosphorylation status of EGFR was measured.
1 × 10^6 cells were seeded in a 10 cm plate, incubated at 37 °C for overnight and treated with various concentrations of compounds for the indicated times. After incubation, the culture medium was removed and washed twice with 2 mL ice-cold 1× PBS. Three hundred μL of protein lysis buffer (150 mM NaCl, 50 mM Tris-HCl (pH 7.4), 1% SDS, 1% Triton X-100, 1 mM PMSF) was added into each plate, scraped with a rubber policeman, collected into a premarked microtube and the incubated in ice for 1 h, sonicated by Ultrasonic Cell Disruptor for three time at 5 s each. The cell lysated was cleared by centrifugation at 12,000× g for 15 min at 4 °C. Supernatants were transferred into a fresh marked microtube and stored at −20 °C for future use.
Protein concentration of each sample was determined using a BCA Protein Assay Kit (Pirece®, Thermo Scientific). Different percentages of SDS-PAGE gels were prepared according to the molecular size of proteins of interest. […] The emitted fluorescence from the membrane was caught on a LAS-4000 biomolecule imager (FUJI.).

T1 sequence (P00533 25-1210): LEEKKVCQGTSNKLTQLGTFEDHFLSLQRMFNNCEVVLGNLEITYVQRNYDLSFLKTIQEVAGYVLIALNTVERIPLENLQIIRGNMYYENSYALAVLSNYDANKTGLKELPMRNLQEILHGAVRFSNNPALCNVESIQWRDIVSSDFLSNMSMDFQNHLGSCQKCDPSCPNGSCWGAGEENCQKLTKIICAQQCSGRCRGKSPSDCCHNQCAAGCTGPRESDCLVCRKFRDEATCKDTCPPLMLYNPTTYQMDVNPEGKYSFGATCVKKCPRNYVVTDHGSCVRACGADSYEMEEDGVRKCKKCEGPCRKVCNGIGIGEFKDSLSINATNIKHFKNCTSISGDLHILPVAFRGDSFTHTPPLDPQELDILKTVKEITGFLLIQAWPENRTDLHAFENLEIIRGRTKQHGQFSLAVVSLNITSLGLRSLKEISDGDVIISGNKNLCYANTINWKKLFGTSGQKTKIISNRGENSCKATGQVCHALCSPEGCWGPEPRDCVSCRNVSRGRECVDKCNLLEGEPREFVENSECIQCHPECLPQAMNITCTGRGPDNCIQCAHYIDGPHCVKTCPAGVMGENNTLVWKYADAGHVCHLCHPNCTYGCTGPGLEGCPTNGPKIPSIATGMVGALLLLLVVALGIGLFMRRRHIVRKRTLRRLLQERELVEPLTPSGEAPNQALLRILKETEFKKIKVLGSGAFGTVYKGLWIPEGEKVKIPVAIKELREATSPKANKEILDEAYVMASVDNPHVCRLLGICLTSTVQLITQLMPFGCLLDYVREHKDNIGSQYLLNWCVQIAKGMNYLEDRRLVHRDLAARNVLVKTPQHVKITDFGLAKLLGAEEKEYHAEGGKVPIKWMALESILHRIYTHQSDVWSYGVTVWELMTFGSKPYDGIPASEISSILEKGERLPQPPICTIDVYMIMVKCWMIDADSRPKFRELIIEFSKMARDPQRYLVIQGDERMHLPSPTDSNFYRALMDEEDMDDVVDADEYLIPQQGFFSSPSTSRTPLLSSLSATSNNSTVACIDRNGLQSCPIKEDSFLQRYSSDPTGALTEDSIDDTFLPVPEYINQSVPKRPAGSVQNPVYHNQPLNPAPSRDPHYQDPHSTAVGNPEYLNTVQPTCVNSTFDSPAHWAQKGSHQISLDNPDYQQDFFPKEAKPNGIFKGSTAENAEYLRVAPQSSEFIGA

EGF-induced phosphorylation of EGFR: reduce
SMILES: CC(C)=CCOc1cc2ccc(=O)oc2cc1OCC=C(C)C [Compound 50, 6,7-diprenoxycoumarin]
